A short description of series [1]: 1-octanol-water partition coefficient, log P of the compound by shake flask method. Type of series: physicochemical.
The test system of series [2] is Pectobacterium carotovorum. In words: Growth inhibition of Pectobacterium carotovorum at 5 ug/ml after 12 hr by turbidometric analysis. Type of series: functional. The conditions noted are these: read-out: GI.
Series [3] deals with Rhizoctonia solani. In words: Growth inhibition of Rhizoctonia solani at 500 ug/ml after 24 to 28 […] by growth rate method. The conditions noted are these: read-out: GI. Format: functional.
In series [4] the test system is Pectobacterium carotovorum. The experiment in a line: Growth inhibition of Pectobacterium carotovorum at 50 ug/ml after 12 hr by turbidometric analysis. Format: functional. The conditions noted are these: read-out: GI.
The test system of series [5] is Rhizoctonia solani. In words: Growth inhibition of Rhizoctonia solani at 10 ug/ml after 24 to 28 […] by growth rate method. Format: functional. As to conditions: read-out: GI.
For series [6], the system named is Rhizoctonia solani. The experiment in a line: Growth inhibition of Rhizoctonia solani at 50 ug/ml after 24 to 28 […] by growth rate method. The conditions noted are these: read-out: GI. Type of series: functional.
The subject of series [7] is Pectobacterium carotovorum. The experiment in a line: Antibacterial activity against Pectobacterium carotovorum after 12 hr by turbidometric analysis. Type of series: functional, organism-based.
The test system of series [8] is Rhizoctonia solani. In words: Growth inhibition of Rhizoctonia solani at 100 ug/ml after 24 to 28 […] by growth rate method. Type of series: functional. The conditions noted are these: read-out: GI.
Series [9] concerns Rhizoctonia solani. The experiment in a line: Antifungal activity against Rhizoctonia solani after 24 to 28 […] by growth rate method. Type of series: functional, organism-based.
Series [10] concerns Rhizoctonia solani. In words: Growth inhibition of Rhizoctonia solani at 300 ug/ml after 24 to 28 […] by growth rate method. The conditions noted are these: read-out: GI. Type of series: functional.
Series [11] concerns Pectobacterium carotovorum. The experiment in a line: Growth inhibition of Pectobacterium carotovorum at 30 ug/ml after 12 hr by turbidometric analysis. The conditions noted are these: read-out: GI. Type of series: functional.
Series [12] relates to Pectobacterium carotovorum. The experiment in a line: Growth inhibition of Pectobacterium carotovorum at 10 ug/ml after 12 hr by turbidometric analysis. The conditions noted are these: read-out: GI. Format: functional.
For series [13], the system named is Pectobacterium carotovorum. The experiment in a line: Growth inhibition of Pectobacterium carotovorum at 20 ug/ml after 12 hr by turbidometric analysis. Type of series: functional. As to conditions: read-out: GI.
For series [14], the system named is Pectobacterium carotovorum. In words: Growth inhibition of Pectobacterium carotovorum at 0.01 ug/ml after 12 hr by turbidometric analysis. Type of series: functional. The conditions noted are these: read-out: GI.
The test system of series [15] is Pectobacterium carotovorum. In words: Growth inhibition of Pectobacterium carotovorum at 1 ug/ml after 12 hr by turbidometric analysis. Format: functional. As to conditions: read-out: GI.
The subject of series [16] is Pectobacterium carotovorum. In words: Growth inhibition of Pectobacterium carotovorum at 0.5 ug/ml after 12 hr by turbidometric analysis. Format: functional. As to conditions: read-out: GI.
Series [17] concerns Pectobacterium carotovorum. The experiment in a line: Growth inhibition of Pectobacterium carotovorum at 2 ug/ml after 12 hr by turbidometric analysis. The conditions noted are these: read-out: GI. Type of series: functional.
The subject of series [18] is Pectobacterium carotovorum. The experiment in a line: Growth inhibition of Pectobacterium carotovorum at 0.2 ug/ml after 12 hr by turbidometric analysis. Format: functional. As to conditions: read-out: GI.
Series [19] relates to Pectobacterium carotovorum. The experiment in a line: Growth inhibition of Pectobacterium carotovorum at 0.02 ug/ml after 12 hr by turbidometric analysis. Format: functional. The conditions noted are these: read-out: GI.
Series [20] concerns Pectobacterium carotovorum. The experiment in a line: Growth inhibition of Pectobacterium carotovorum at 0.05 ug/ml after 12 hr by turbidometric analysis. Format: functional. As to conditions: read-out: GI.
Series [21] deals with Rhizoctonia solani. In words: Growth inhibition of Rhizoctonia solani at 5 ug/ml after 24 to 28 […] by growth rate method. Format: functional. As to conditions: read-out: GI.
The test system of series [22] is Rhizoctonia solani. The experiment in a line: Growth inhibition of Rhizoctonia solani at 70 ug/ml after 24 to 28 […] by growth rate method. Type of series: functional. The conditions noted are these: read-out: GI.
The test system of series [23] is Pectobacterium carotovorum. In words: Growth inhibition of Pectobacterium carotovorum at 70 ug/ml after 12 hr by turbidometric analysis. Format: functional. The conditions noted are these: read-out: GI.
For series [24], the system named is Rhizoctonia solani. In words: Growth inhibition of Rhizoctonia solani at 15 ug/ml after 24 to 28 […] by growth rate method. Format: functional. As to conditions: read-out: GI.
Series [25] has as its system Rhizoctonia solani. The experiment in a line: Growth inhibition of Rhizoctonia solani at 25 ug/ml after 24 to 28 […] by growth rate method. Type of series: functional. The conditions noted are these: read-out: GI.
Series [26] concerns Pectobacterium carotovorum. In words: Growth inhibition of Pectobacterium carotovorum at 100 ug/ml after 12 hr by turbidometric analysis. Type of series: functional. As to conditions: read-out: GI.
Series [27] deals with Pectobacterium carotovorum. The experiment in a line: Growth inhibition of Pectobacterium carotovorum at 80 ug/ml after 12 hr by turbidometric analysis. As to conditions: read-out: GI. Type of series: functional.

Converted amounts (≈) assume the structure as drawn.

A word on the logP: it is a log measure of how a compound divides between an organic and an aqueous phase. High values mean a more lipophilic compound, low ones a more hydrophilic compound. In general, EC50 refers to the midpoint of the concentration-response curve. A higher EC50 goes with a need for much substance. In [1], `CCCCCCCN=C=S` [1-ISOTHIOCYANATOHEPTANE] had a logP of 4.19. In [2], the inhibition of growth at 5 µg/mL stood at 28.8%. Besides, the inhibition of growth at 500 µg/mL in series [3] is 89.1%. Further, the inhibition of growth at 50 µg/mL in series [4] was 97%; in [6], 46.6%. The inhibition of growth at 10 µg/mL amounted to 21.6% in series [5] and 68% in series [12]. The results for the EC50 in [7] and in series [9] were 7.51 µg/mL (≈ 47.7 µM) and 54.5 µg/mL (≈ 346 µM), respectively. Also, the inhibition of growth at 100 µg/mL in series [8] is 62%. Moreover, in series [10], the inhibition of growth at 300 µg/mL was found to be 75.1%. In addition, in series [11], the inhibition of growth at 30 µg/mL is 94.4%. Also, the inhibition of growth at 20 µg/mL in series [13] was found to be 84.1%.
Regarding `CCCCCCN=C=S` [1-ISOTHIOCYANATOHEXANE], the logP in series [1] was 3.68.
Take `CCCCCCCCN=C=S` [1-ISOTHIOCYANATOOCTANE]: the logP in series [1] came out at 4.7. The inhibition of growth at 5 µg/mL in series [2] is 70.6%. Besides, the inhibition of growth at 0.01 µg/mL in series [14] amounted to 6.4%. In addition, the inhibition of growth at 500 µg/mL in series [3] was found to be 84.2%. Moreover, in series [15], the inhibition of growth at 1 µg/mL came to 47.8%. In addition, the inhibition of growth at 0.5 µg/mL in series [16] was 24.7%. In addition, the inhibition of growth at 10 µg/mL in [5] amounted to 21.8%; in series [12], 83.1%. Also, in series [6], the inhibition of growth at 50 µg/mL was 66.1%. The EC50 in series [7] amounted to 1.17 µg/mL (≈ 6.83 µM); in series [9] it was 34.7 µg/mL (≈ 203 µM). Also, the inhibition of growth at 100 µg/mL in series [8] turned out to be 74.8%. The inhibition of growth at 300 µg/mL in [10] worked out at 82.2%.
On to `CCCCCN=C=S` [1-ISOTHIOCYANATOPENTANE], for which the logP in [1] stood at 3.17. In addition, the inhibition of growth at 2 µg/mL in series [17] was 36%. For the same compound, the inhibition of growth at 5 µg/mL in series [2] worked out at 72.3%. Moreover, the inhibition of growth at 0.2 µg/mL in series [18] was found to be 22.3%. The inhibition of growth at 500 µg/mL in series [3] amounted to 87.4%. In series [16], the inhibition of growth at 0.5 µg/mL was determined as 26.2%. In addition, in [5], the inhibition of growth at 10 µg/mL was 16%. Moreover, the inhibition of growth at 50 µg/mL in [6] worked out at 34.9%. Further, the half-maximal effective concentration (EC50) in series [7] was determined as 2.03 µg/mL (≈ 15.7 µM); in [9], 90 µg/mL (≈ 696 µM). Moreover, the inhibition of growth at 0.02 µg/mL in series [19] came to 2.04%. In series [8], the inhibition of growth at 100 µg/mL amounted to 44.6%. Besides, the inhibition of growth at 300 µg/mL in series [10] is 69%.
In the case of `CCCCN=C=S` [BUTYL ISOTHIOCYANATE], the logP in series [1] stood at 2.66. In addition, the results for the inhibition of growth at 5 µg/mL in series [2] and in series [21] were 31.7% and 3.72%, respectively. Moreover, the inhibition of growth at 0.2 µg/mL in [18] came to 10.7%. In addition, the inhibition of growth at 10 µg/mL is 15.5% in [5] and 43.9% in [12]. For the same compound, the inhibition of growth at 0.05 µg/mL in series [20] was 6.38%. Also, the inhibition of growth at 50 µg/mL in [6] turned out to be 57.7%. Further, the EC50 stood at 26.1 µg/mL (≈ 227 µM) in series [7] and 42.8 µg/mL (≈ 372 µM) in series [9]. In addition, the inhibition of growth at 100 µg/mL in series [8] worked out at 68.2%. The inhibition of growth at 300 µg/mL in series [10] was determined as 91.6%. In addition, the inhibition of growth at 20 µg/mL in series [13] was 84.4%.
For `CCN=C=S` [ETHYL ISOTHIOCYANATE], in series [1], the lipophilicity (logP) came out at 1.64. The values for the inhibition of growth at 50 µg/mL in series [4] and in [6] were 64.6% and 67.3%, respectively. Moreover, the inhibition of growth at 70 µg/mL is 73.9% in series [22] and 94.8% in series [23]. Besides, the figures for the inhibition of growth at 10 µg/mL in [5] and in [12] were 61.1% and 6.74%, respectively. Besides, the EC50 in series [7] was 41.6 µg/mL (≈ 478 µM); in series [9] it was 3.52 µg/mL (≈ 40.4 µM). Further, the inhibition of growth at 5 µg/mL in [21] was 58.8%. For the same compound, the inhibition of growth at 100 µg/mL in series [8] amounted to 91.8%. In series [11], the inhibition of growth at 30 µg/mL is 48.5%. Moreover, the inhibition of growth at 20 µg/mL in [13] came to 11.7%.
In series [1], `CN=C=S` [METHYLISOTHIOCYANATE] returned a logP of 1.13. In addition, the inhibition of growth at 15 µg/mL in [24] turned out to be 49.7%. Moreover, the inhibition of growth at 25 µg/mL in [25] was 66.3%. In addition, the values for the inhibition of growth at 50 µg/mL in series [4] and in series [6] were 61.1% and 77.5%, respectively. Also, the inhibition of growth at 10 µg/mL amounted to 41.5% in series [5] and 10.9% in series [12]. For the same compound, the values for the inhibition of growth at 100 µg/mL in [26] and in series [8] were 81.3% and 84.6%, respectively. Also, the inhibition of growth at 80 µg/mL in [27] was 71.5%. For the same compound, the figures for the concentration for a half-maximal effect (EC50) in series [7] and in series [9] were 38.2 µg/mL (≈ 523 µM) and 12.3 µg/mL (≈ 169 µM), respectively. In addition, the inhibition of growth at 20 µg/mL in series [13] is 29.9%.
On to `CCCN=C=S` [PROPYL ISOTHIOCYANATE], for which, in [1], the logP came to 2.15. In addition, the inhibition of growth at 50 µg/mL in [4] is 76.3%; in series [6], 68%. For the same compound, the inhibition of growth at 10 µg/mL was 50.1% in [5] and 29% in series [12]. Further, the inhibition of growth at 100 µg/mL was 90.7% in [26] and 84.2% in series [8]. Further, in [27], the inhibition of growth at 80 µg/mL was determined as 86%. Further, the EC50 in series [7] amounted to 20.6 µg/mL (≈ 204 µM); in series [9], 12 µg/mL (≈ 118 µM). Besides, in [21], the inhibition of growth at 5 µg/mL was 21.4%. For the same compound, in series [10], the inhibition of growth at 300 µg/mL was found to be 93.7%. Also, the inhibition of growth at 20 µg/mL in series [13] was found to be 47%.

(Values after ChEMBL document CHEMBL3044893, “Synthesis and structureactivity relationships of aliphatic isothiocyanate analogs as antibiotic agents” (Med Chem Res, 2013).)
